Experimental data as given in patent US12655116B2, “Substituted isophthalic acid diamides” (Bayer Aktiengesellschaft, priority 2020, dated 2026).

Assays:
VERPE [1] = assay: Post-emergence herbicidal action against VERPE; assay type: in vivo, Veronica persica; conditions: 20 g/ha
Outline: (§1)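 Weeds in sandy loam soil received a post-emergence spray at the one-leaf stage. Compounds were applied as WP or EC in water, 600 to 800 l/ha, with 0.2% wetting agent. Activity in % was judged visually after roughly 3 weeks against untreated plants.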

VERPE [2] = assay: Pre-emergence herbicidal action against VERPE; assay type: in vivo, Veronica persica; conditions: dosage 80 g/ha
Outline: (§2)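 Visual rating at 3 weeks vs untreated pots; 0–100% scale, 100% = plants died. Treatment: aqueous WP/EC spray onto covering soil, 600–800 l/ha, 0.2% wetter, seeds in sandy loam.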

AMARE [3] = assay: Post-emergence herbicidal action against AMARE; assay type: in vivo, Amaranthus retroflexus; conditions: 20 g/ha, visual assessment about 3 weeks after treatment, 100% = plants have died, 0% = like control plants
Outline: as §1

HORMU [4] = assay: Pre-emergence herbicidal action against HORMU; assay type: in vivo, Hordeum murinum; conditions: Hordeum murinum, 504 h; 80 g/ha, pre-emergence
Outline: as §2

ALOMY [5] = assay: Pre-emergence herbicidal action against ALOMY; assay type: in vivo, Alopecurus myosuroides; conditions: 80 g/ha, pre-emergence, scored visually after 3 weeks vs untreated controls (100% = plants have died, 0% = like control plants)
Outline: as §2

STEME [6] = assay: Pre-emergence herbicidal action against STEME; assay type: in vivo, Stellaria media
Outline: as §2

STEME [7] = assay: Post-emergence herbicidal action against STEME; assay type: in vivo, Stellaria media
Outline: as §1

PHBPU = assay: Post-emergence herbicidal action against PHBPU; assay type: in vivo, Pharbitis purpurea; conditions: dosage 20 g/ha
Outline: as §1

ECHCG [8] = assay: Pre-emergence herbicidal action against ECHCG; assay type: in vivo, Echinochloa crus-galli
Outline: as §2

LOLRI [9] = assay: Post-emergence herbicidal action against LOLRI; assay type: in vivo, Lolium rigidum; conditions: dosage 20 g/ha
Outline: as §1

AVEFA [10] = assay: Pre-emergence herbicidal action against AVEFA; assay type: in vivo, Avena fatua; conditions: Avena fatua, 504 h; 80 g/ha, pre-emergence
Outline: as §2

POLCO [11] = assay: Post-emergence herbicidal action against POLCO; assay type: in vivo, Polygonum convolvulus; conditions: dosage 20 g/ha
Outline: as §1

LOLRI [12] = assay: Pre-emergence herbicidal action against LOLRI; assay type: in vivo, Lolium rigidum; conditions: Lolium rigidum, 504 h, 80 g/ha
Outline: as §2

SETVI [13] = assay: Pre-emergence herbicidal action against SETVI; assay type: in vivo, Setaria viridis
Outline: as §2

AMARE [14] = assay: Pre-emergence herbicidal action against AMARE; assay type: in vivo, Amaranthus retroflexus
Outline: as §2

ABUTH [15] = assay: Post-emergence herbicidal action against ABUTH; assay type: in vivo, Abutilon theophrasti; conditions: visual assessment about 3 weeks after treatment vs untreated controls
Outline: as §1

DIGSA [16] = assay: Pre-emergence herbicidal action against DIGSA; assay type: in vivo, Digitaria sanguinalis
Outline: as §2

ECHCG [17] = assay: Post-emergence herbicidal action against ECHCG; assay type: in vivo, Echinochloa crus-galli
Outline: as §1

SETVI [18] = assay: Post-emergence herbicidal action against SETVI; assay type: in vivo, Setaria viridis
Outline: as §1

MATIN [19] = assay: Post-emergence herbicidal action against MATIN; assay type: in vivo, Matricaria inodora
Outline: as §1

DIGSA [20] = assay: Post-emergence herbicidal action against DIGSA; assay type: in vivo, Digitaria sanguinalis
Outline: as §1

POLCO [21] = assay: Pre-emergence herbicidal action against POLCO; assay type: in vivo, Polygonum convolvulus; conditions: Fallopia convolvulus, 504 h, dosage 80 g/ha
Outline: as §2

VIOTR [22] = assay: Post-emergence herbicidal action against VIOTR; assay type: in vivo, Viola tricolor
Outline: as §1

MATIN [23] = assay: Pre-emergence herbicidal action against MATIN; assay type: in vivo, Matricaria inodora
Outline: as §2

ABUTH [24] = assay: Pre-emergence herbicidal action against ABUTH; assay type: in vivo, Abutilon theophrasti
Outline: as §2

VIOTR [25] = assay: Pre-emergence herbicidal action against VIOTR; assay type: in vivo, Viola tricolor
Outline: as §2

ALOMY [26] = assay: Post-emergence herbicidal action against ALOMY; assay type: in vivo, Alopecurus myosuroides; conditions: dosage 20 g/ha, visual assessment about 3 weeks after treatment vs untreated controls
Outline: as §1

HORMU [27] = assay: Post-emergence herbicidal action against HORMU; assay type: in vivo, Hordeum murinum; conditions: dosage 20 g/ha
Outline: as §1

AVEFA [28] = assay: Post-emergence herbicidal action against AVEFA; assay type: in vivo, Avena fatua; conditions: 20 g/ha, visual assessment about 3 weeks after treatment, 100% = plants have died, 0% = like control plants
Outline: as §1

[29] = Setaria viridis, 504 h, dosage 20 g/ha
[30] = Tripleurospermum inodorum, 504 h, dosage 20 g/ha
[31] = 80 g/ha, scored visually after 3 weeks vs untreated controls (100% = plants have died, 0% = like control plants)

SMILES: CCNC(=O)c1c(C(F)(F)F)ccc(C(=O)Nc2nnnn2C)c1C [Example 1-26]
- pest or weed control at 20 g/ha (VERPE [1]; Veronica persica, 504 h): 80%
- pest or weed control at 80 g/ha (VERPE [2]; Veronica persica, 504 h): 80%
- pest or weed control at 20 g/ha (AMARE [3]; Amaranthus retroflexus, 504 h): 100%
- pest or weed control at 80 g/ha (HORMU [4]): 80%
- pest or weed control at 80 g/ha (ALOMY [5]; Alopecurus myosuroides, 504 h): 100%
- pest or weed control at 20 g/ha (STEME [6]; Stellaria media, 504 h, dosage 20 g/ha): 100%
- pest or weed control at 80 g/ha (STEME [6]; Stellaria media, 504 h, dosage 80 g/ha): 100%
- pest or weed control at 20 g/ha (STEME [7]; Stellaria media, 504 h, 20 g/ha): 90%
- pest or weed control at 5 g/ha (STEME [7]; Stellaria media, 504 h, dosage 5 g/ha): 90%
- pest or weed control at 20 g/ha (PHBPU; Ipomoea purpurea, 504 h): 80%
- pest or weed control at 20 g/ha (ECHCG [8]; Echinochloa crus-galli, 504 h, 20 g/ha): 80%
- pest or weed control at 80 g/ha (ECHCG [8]; Echinochloa crus-galli, 504 h, 80 g/ha): 100%
- pest or weed control at 20 g/ha (LOLRI [9]; Lolium rigidum, 504 h): 80%
- pest or weed control at 80 g/ha (AVEFA [10]): 100%
- pest or weed control at 20 g/ha (POLCO [11]; Fallopia convolvulus, 504 h): 90%
- pest or weed control at 80 g/ha (LOLRI [12]): 80%
- pest or weed control at 20 g/ha (SETVI [13]; [29]): 80%
- pest or weed control at 80 g/ha (SETVI [13]; Setaria viridis, 504 h, dosage 80 g/ha): 100%
- pest or weed control at 20 g/ha (AMARE [14]; Amaranthus retroflexus, 504 h, 20 g/ha, scored visually after 3 weeks vs untreated controls, 100% = plants have died, 0% = like control plants): 100%
- pest or weed control at 80 g/ha (AMARE [14]; Amaranthus retroflexus, 504 h, 80 g/ha, scored visually after 3 weeks vs untreated controls, 100% = plants have died, 0% = like control plants): 100%
- pest or weed control at 5 g/ha (ABUTH [15]; Abutilon theophrasti, 504 h, dosage 5 g/ha): 90%
- pest or weed control at 20 g/ha (ABUTH [15]; Abutilon theophrasti, 504 h, dosage 20 g/ha): 100%
- pest or weed control at 20 g/ha (DIGSA [16]; Digitaria sanguinalis, 504 h, dosage 20 g/ha): 100%
- pest or weed control at 80 g/ha (DIGSA [16]; Digitaria sanguinalis, 504 h, dosage 80 g/ha): 100%
- pest or weed control at 20 g/ha (ECHCG [17]; Echinochloa crus-galli, 504 h, dosage 20 g/ha): 80%
- pest or weed control at 5 g/ha (SETVI [18]; Setaria viridis, 504 h, dosage 5 g/ha): 100%
- pest or weed control at 20 g/ha (SETVI [18]; [29]): 100%
- pest or weed control at 5 g/ha (MATIN [19]; Tripleurospermum inodorum, 504 h, dosage 5 g/ha): 90%
- pest or weed control at 20 g/ha (MATIN [19]; [30]): 90%
- pest or weed control at 5 g/ha (DIGSA [20]; Digitaria sanguinalis, 504 h, 5 g/ha): 90%
- pest or weed control at 20 g/ha (DIGSA [20]; Digitaria sanguinalis, 504 h, 20 g/ha): 100%
- pest or weed control at 80 g/ha (POLCO [21]): 90%
- pest or weed control at 5 g/ha (VIOTR [22]; Viola tricolor, 504 h, 5 g/ha): 100%
- pest or weed control at 20 g/ha (VIOTR [22]; Viola tricolor, 504 h, 20 g/ha): 100%
- pest or weed control at 20 g/ha (MATIN [23]; [30]): 100%
- pest or weed control at 80 g/ha (MATIN [23]; Tripleurospermum inodorum, 504 h, dosage 80 g/ha): 100%
- pest or weed control at 80 g/ha (ABUTH [24]; Abutilon theophrasti, 504 h, 80 g/ha, scored visually after 3 weeks vs untreated controls (100% = plants have died, 0% = like control plants)): 100%
- pest or weed control at 20 g/ha (ABUTH [24]; Abutilon theophrasti, 504 h, dosage 20 g/ha, scored visually after 3 weeks vs untreated controls, 100% = plants have died, 0% = like control plants, read-out: Pre-emergence action against ABUTH (herbicidal activity in percent)): 100%
- pest or weed control at 20 g/ha (VIOTR [25]; Viola tricolor, 504 h, dosage 20 g/ha): 90%
- pest or weed control at 80 g/ha (VIOTR [25]; Viola tricolor, 504 h, dosage 80 g/ha): 100%
- pest or weed control at 20 g/ha (ALOMY [26]; Alopecurus myosuroides, 504 h): 90%

SMILES: CNC(=O)c1c(C(F)F)ccc(C(=O)Nc2nnco2)c1Cl [Example 5-122]
- Post-emergence action against VERPE in % (VERPE [1]): 80%
- Pre-emergence action against VERPE in % (VERPE [2]): 100%
- Post-emergence action at 20 g/ha against AMARE in % (AMARE [3]): 90%
- Pre-emergence action against ALOMY (herbicidal activity) (ALOMY [5]): 80%
- Pre-emergence action against STEME in % (STEME [6]; dosage 20 g/ha): 90%
- Pre-emergence action against STEME in % (STEME [6]; dosage 80 g/ha): 90%
- Post-emergence action against STEME in % (STEME [7]; 20 g/ha): 100%
- Post-emergence action against STEME in % (STEME [7]; dosage 5 g/ha): 90%
- Post-emergence action against PHBPU in % (PHBPU): 90%
- Pre-emergence action against ECHCG in % (ECHCG [8]; 20 g/ha): 80%
- Pre-emergence action against ECHCG in % (ECHCG [8]; 80 g/ha): 100%
- Post-emergence action against LOLRI in % (LOLRI [9]): 80%
- Post-emergence action against POLCO in % (POLCO [11]): 80%
- Pre-emergence action against SETVI in % (SETVI [13]; dosage 80 g/ha): 100%
- Pre-emergence action against AMARE in % (AMARE [14]; 20 g/ha, scored visually after 3 weeks vs untreated controls, 100% = plants have died, 0% = like control plants): 80%
- Pre-emergence action against AMARE in % (AMARE [14]; [31]): 100%
- Post-emergence action against ABUTH in % (ABUTH [15]; dosage 5 g/ha): 80%
- Post-emergence action against ABUTH in % (ABUTH [15]; dosage 20 g/ha): 90%
- Pre-emergence action against DIGSA in % (DIGSA [16]; dosage 20 g/ha): 100%
- Pre-emergence action against DIGSA in % (DIGSA [16]; dosage 80 g/ha): 100%
- Post-emergence action against ECHCG in % (ECHCG [17]; dosage 5 g/ha): 90%
- Post-emergence action against ECHCG in % (ECHCG [17]; dosage 20 g/ha): 90%
- Post-emergence action against SETVI in % (SETVI [18]; dosage 5 g/ha): 80%
- Post-emergence action against SETVI in % (SETVI [18]; dosage 20 g/ha): 90%
- Post-emergence action against MATIN in % (MATIN [19]; dosage 5 g/ha): 80%
- Post-emergence action against MATIN in % (MATIN [19]; dosage 20 g/ha): 80%
- Post-emergence action against HORMU in % (HORMU [27]): 80%
- Post-emergence action against DIGSA in % (DIGSA [20]; 5 g/ha): 90%
- Post-emergence action against DIGSA (DIGSA [20]; 20 g/ha): 90%
- Post-emergence action against VIOTR in % (VIOTR [22]; 5 g/ha): 90%
- Post-emergence action against VIOTR in % (VIOTR [22]; 20 g/ha): 90%
- Pre-emergence action against MATIN in % (MATIN [23]; dosage 80 g/ha): 90%
- Post-emergence action at 20 g/ha against AVEFA in % (AVEFA [28]): 80%
- Pre-emergence action against ABUTH (herbicidal activity) (ABUTH [24]; [31]): 100%
- Pre-emergence action against ABUTH (herbicidal activity in percent) (ABUTH [24]; dosage 20 g/ha, scored visually after 3 weeks vs untreated controls, 100% = plants have died, 0% = like control plants): 90%
- Pre-emergence action against VIOTR in % (VIOTR [25]; dosage 20 g/ha): 80%
- Pre-emergence action against VIOTR in % (VIOTR [25]; dosage 80 g/ha): 100%
- Post-emergence action against ALOMY in % (ALOMY [26]): 80%
